Reference: ChEMBL document CHEMBL1201862, “PubChem BioAssay data set” (2004)
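Test compounds were applied to cells in 96-well plates for 48 hours at 5 doses. Here, GI50 denotes the concentration required for 50% inhibition of growth.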 Active and inactive are the calls of the source. No stated cut-off is given here; in the data, active = GI50 up to about 1.1 µM and inactive = higher.

Experiments:
Assay in all cases: inhibition of tumour cell growth, NCI panel, 48 h
[1] = system: CCRF-CEM
[2] = system: COLO 205
[3] = system: HCC 2998
[4] = system: HL-60
[5] = system: KM12
[6] = system: LOX IMVI
[7] = system: LXFL 529
[8] = system: M14
[9] = system: MOLT-4
[10] = system: Malme-3M
[11] = system: NCI-H23
[12] = system: OVCAR-3
[13] = system: SF-268
[14] = system: SF-295
[15] = system: SK-OV-3
[16] = system: SW-620
[17] = system: UACC-257
[18] = system: A498
[19] = system: MDA-MB-435
[20] = system: PC-3

Row | SMILES | GI50 [1] | GI50 [2] | GI50 [3] | GI50 [4] | GI50 [5] | GI50 [6] | GI50 [7] | GI50 [8] | GI50 [9] | GI50 [10] | GI50 [11] | GI50 [12] | GI50 [13] | GI50 [14] | GI50 [15] | GI50 [16] | GI50 [17] | GI50 [18] | GI50 [19] | GI50 [20]
1 | COc1ccc(C2C(Cl)C(=O)N2NC(=O)Cc2ccccc2)cc1 (stereo not drawn) | > 100 µM (inactive) | > 100 µM (inactive) | > 100 µM (inactive) | > 100 µM (inactive) | > 100 µM (inactive) | > 100 µM (inactive) | > 100 µM (inactive) | > 100 µM (inactive) | > 100 µM (inactive) | > 100 µM (inactive) | > 100 µM (inactive) | > 100 µM (inactive) | > 100 µM (inactive) | > 100 µM (inactive) | > 100 µM (inactive) | > 100 µM (inactive) | > 100 µM (inactive) |  |  | 
2 | C[P+](C)(C)C | > 100 µM (inactive) | > 100 µM (inactive) | > 100 µM (inactive) | > 100 µM (inactive) | > 100 µM (inactive) | > 100 µM (inactive) | > 100 µM (inactive) | > 100 µM (inactive) | > 100 µM (inactive) | > 100 µM (inactive) | > 100 µM (inactive) | > 100 µM (inactive) | > 100 µM (inactive) | > 100 µM (inactive) | > 100 µM (inactive) | > 100 µM (inactive) | > 100 µM (inactive) |  |  | 
3 | NC(=S)N/N=C(/CC(=O)c1ccc([N+](=O)[O-])cc1)C(=O)Nc1ncc([N+](=O)[O-])s1 | 82.4 µM (inactive) | > 100 µM (inactive) | > 100 µM (inactive) | 45.2 µM (inactive) | > 100 µM (inactive) | 61.7 µM (inactive) | 92.5 µM (inactive) | > 100 µM (inactive) | 30.7 µM (inactive) | > 100 µM (inactive) | > 100 µM (inactive) | > 100 µM (inactive) | > 100 µM (inactive) | > 100 µM (inactive) |  | > 100 µM (inactive) | > 100 µM (inactive) |  |  | 
4 | O=C(O)c1cc(=O)c2c([nH]c3ccccc32)s1 | > 100 µM (inactive) | > 100 µM (inactive) | > 100 µM (inactive) | > 100 µM (inactive) | > 100 µM (inactive) |  | > 100 µM (inactive) | > 100 µM (inactive) | > 100 µM (inactive) | > 100 µM (inactive) | > 100 µM (inactive) | > 100 µM (inactive) | > 100 µM (inactive) | > 100 µM (inactive) | > 100 µM (inactive) | > 100 µM (inactive) | > 100 µM (inactive) |  |  | 
5 | Cn1c2c(c3ccccc31)C1C(=O)N(c3ccccc3)C(=O)C1CC2 (stereo not drawn) | > 303 µM (inactive) | > 303 µM (inactive) | > 303 µM (inactive) | > 303 µM (inactive) | > 303 µM (inactive) | > 303 µM (inactive) | > 303 µM (inactive) |  | > 303 µM (inactive) | > 303 µM (inactive) | > 303 µM (inactive) | 123 µM (inactive) | > 303 µM (inactive) | > 303 µM (inactive) | > 303 µM (inactive) | > 303 µM (inactive) | > 303 µM (inactive) |  |  | 
6 | C[N+]1=c2c3cccc4cccc(c(=O)n2CC1)c43 | 11.6 µM (inactive) | 10.1 µM (inactive) |  | 20.9 µM (inactive) | 18.3 µM (inactive) | 5.81 µM (inactive) | 13.9 µM (inactive) | 14.9 µM (inactive) | 3.37 µM (inactive) | 10.5 µM (inactive) | 17.6 µM (inactive) | 25.7 µM (inactive) | 12.3 µM (inactive) | 21.3 µM (inactive) | 20.6 µM (inactive) | 11 µM (inactive) | 16.1 µM (inactive) | 15.1 µM (inactive) |  | 
7 | COc1cc2c3c(c1OC)-c1c(ccc4c1OCO4)CC3(C#N)N(C(=O)c1ccccc1)CC2 (stereo not drawn) | 51.3 µM (inactive) | > 100 µM (inactive) |  | > 100 µM (inactive) | > 100 µM (inactive) | 43 µM (inactive) | 73.8 µM (inactive) | > 100 µM (inactive) | > 100 µM (inactive) | 51.2 µM (inactive) | 52.8 µM (inactive) | 45.3 µM (inactive) | 43.2 µM (inactive) | 41.4 µM (inactive) | 50.5 µM (inactive) | > 100 µM (inactive) | 57.7 µM (inactive) | > 100 µM (inactive) |  | 
8 | O=C1/C(=C/c2ccncc2)C(n2cccc2)c2c(Br)sc(Br)c21 (stereo not drawn) | 0.671 µM (active) | 10.4 µM (inactive) | 1.88 µM (inactive) | 1.53 µM (inactive) | 11.3 µM (inactive) | 1.93 µM (inactive) |  | 0.263 µM (active) | 1.4 µM (inactive) | 3.02 µM (inactive) | 2.56 µM (inactive) | 1.87 µM (inactive) | 2.99 µM (inactive) | 13.3 µM (inactive) | 7.78 µM (inactive) | 1.57 µM (inactive) | 2.1 µM (inactive) | 22.7 µM (inactive) | 2.11 µM (inactive) | 4.41 µM (inactive)
9 | CC1Oc2c(c(=O)oc3ccccc23)[C@@]1(C)CC1C[C@H](C)C(=O)O1 (stereo partly drawn) | 5.96 µM (inactive) | 32.1 µM (inactive) | 23.2 µM (inactive) | 27.5 µM (inactive) | 44.6 µM (inactive) | 27.4 µM (inactive) |  | 20.3 µM (inactive) | 10.9 µM (inactive) | 19.5 µM (inactive) | 19.1 µM (inactive) | 20.9 µM (inactive) | 18.3 µM (inactive) | 63 µM (inactive) | 50.5 µM (inactive) | 26.9 µM (inactive) | 35.2 µM (inactive) | > 100 µM (inactive) | 21.9 µM (inactive) | 40.8 µM (inactive)
10 | CCN(CC)CCOc1ccc(N2C(=O)c3cc(OC)c(OC)cc3C2=O)cc1 | > 100 µM (inactive) | > 100 µM (inactive) | > 100 µM (inactive) | > 100 µM (inactive) | > 100 µM (inactive) | > 100 µM (inactive) |  | > 100 µM (inactive) | > 100 µM (inactive) | > 100 µM (inactive) | > 100 µM (inactive) | > 100 µM (inactive) | > 100 µM (inactive) | > 100 µM (inactive) | > 100 µM (inactive) | > 100 µM (inactive) | > 100 µM (inactive) | > 100 µM (inactive) | > 100 µM (inactive) | > 100 µM (inactive)
11 | CCSc1cc(=O)n(C)c(=O)n1C | > 100 µM (inactive) | > 100 µM (inactive) | > 100 µM (inactive) | > 100 µM (inactive) | > 100 µM (inactive) | > 100 µM (inactive) |  | > 100 µM (inactive) | > 100 µM (inactive) | > 100 µM (inactive) | > 100 µM (inactive) | > 100 µM (inactive) | > 100 µM (inactive) | > 100 µM (inactive) | > 100 µM (inactive) | > 100 µM (inactive) | > 100 µM (inactive) | > 100 µM (inactive) | > 100 µM (inactive) | > 100 µM (inactive)
12 | N#Cc1c(Cl)c2cc([N+](=O)[O-])ccc2n2c1nc1ccccc12 | 0.57 µM (active) | 2.21 µM (inactive) | 7.53 µM (inactive) | 0.172 µM (active) | 9.91 µM (inactive) | 1.87 µM (inactive) |  | 1.99 µM (inactive) | 0.8 µM (active) | 6.85 µM (inactive) | 9.98 µM (inactive) | 6.76 µM (inactive) | 5.71 µM (inactive) | 26.8 µM (inactive) | 23.3 µM (inactive) | 2.26 µM (inactive) | 20.6 µM (inactive) | 25.6 µM (inactive) | 2.35 µM (inactive) | 5.46 µM (inactive)
13 | O=C(O)c1nn(-c2ccccc2-c2nnc(O)nc2O)c(=O)[nH]c1=O | 51.8 µM (inactive) | > 100 µM (inactive) | > 100 µM (inactive) | 30.5 µM (inactive) | > 100 µM (inactive) | > 100 µM (inactive) |  | > 100 µM (inactive) | 4.73 µM (inactive) | > 100 µM (inactive) | > 100 µM (inactive) | > 100 µM (inactive) | > 100 µM (inactive) | > 100 µM (inactive) | > 100 µM (inactive) | > 100 µM (inactive) | > 100 µM (inactive) | > 100 µM (inactive) | > 100 µM (inactive) | > 100 µM (inactive)
14 | [N-]=[N+]=CC(=O)OCC1NC(=O)C(COC(=O)C=[N+]=[N-])NC1=O (stereo not drawn) | > 100 µM (inactive) | > 100 µM (inactive) | > 100 µM (inactive) | > 100 µM (inactive) | > 100 µM (inactive) | > 100 µM (inactive) |  | > 100 µM (inactive) | > 100 µM (inactive) | > 100 µM (inactive) | > 100 µM (inactive) | > 100 µM (inactive) | > 100 µM (inactive) | > 100 µM (inactive) | > 100 µM (inactive) | > 100 µM (inactive) | > 100 µM (inactive) | > 100 µM (inactive) | > 100 µM (inactive) | > 100 µM (inactive)
15 | CNC(=O)CN(C)C(=O)CCC(=O)N(C)C | > 100 µM (inactive) | > 100 µM (inactive) | > 100 µM (inactive) | > 100 µM (inactive) | > 100 µM (inactive) | > 100 µM (inactive) |  | > 100 µM (inactive) | > 100 µM (inactive) | > 100 µM (inactive) | > 100 µM (inactive) | > 100 µM (inactive) | > 100 µM (inactive) | > 100 µM (inactive) | > 100 µM (inactive) | > 100 µM (inactive) | > 100 µM (inactive) | > 100 µM (inactive) | > 100 µM (inactive) | > 100 µM (inactive)
